Source: ChEMBL document CHEMBL3507680, “University of Dundee, Gates Library screen for HepG2 cell viability”

experiment: Human HepG2 cell viability assay in 384 well format; format: toxicity, cell-based; parameters: dose 125 nL, time 70.5 hour; cytotoxicity at 70.5 h: concentration not given beside the values; conditions: HepG2 cells, read-out: Inhibition

| SMILES | cytotoxicity at 70.5 h [%] |
| --- | --- |
| O=C1CCc2cc(S(=O)(=O)NC(=O)c3ccc4c(c3)COC4)ccc2N1 | -12.1 |
| Cn1cc(N2CC3(CCN(Cc4ccoc4)CC3)OCC2=O)cn1 | -1.7 |
| CC(C)C(=O)N1CCN(Cc2cnn(C)c2)CC2(CC(=O)N(C)C2)C1 (stereo not drawn) | -13.2 |
| Cn1cc(CN2C[C@@H]3COC[C@]3(C(=O)NCc3cccs3)C2)cn1 | -6.51 |
| O=C(c1cccnc1)N1CCC2(CCN(C(=O)c3ccco3)CC2)C1 | 2.92 |
| O=C(NCC(F)F)c1cc(-c2ccccc2)nc2ncnn12 | -1.07 |
| Nc1no[n+]([O-])c1C(=O)NCc1ccccn1 | -13.7 |
| O=C(C1CCOCC1)N1CCC2(CCN(Cc3nccs3)CC2)CC1 | 9.62 |
| O=C(Cc1ccc(S(=O)(=O)C(F)F)cc1)N1CCCC1 | -5.59 |
| Cc1ccc(CC2COCCN(S(C)(=O)=O)C2)nc1 (stereo not drawn) | 12.3 |
| CCc1ccc2nc(NCC(O)CO)cc(C)c2c1 (stereo not drawn) | 1.81 |
| CCO[C@H]1CO[C@@]2(CCN(Cc3ccc4c(c3)OCO4)C2)C1 | -9.21 |
| COC(=O)Cn1c(C)cc(=O)n2nc(-c3cccs3)nc12 | 13.3 |
| CNC(=O)[C@@H](c1ccccc1OC)N1CCC[C@H]1C(=O)NC(C)(C)C | -8.72 |
| O=C1CC(c2ccncc2)c2c(c(C(=O)O)cn2-c2ccc(F)cc2)N1 (stereo not drawn) | -6.2 |
| COc1ncccc1CNC(=O)c1ccco1 | 18 |
| NC(=O)CN1CCN(S(=O)(=O)N2CCCC2c2ccco2)CC1 (stereo not drawn) | -3.32 |
| Cc1cc(N2CCN(C(=O)c3cc(Cl)c[nH]3)CC2)nc(C)n1 | -4.7 |
| CNC(=O)C1CCC(NC(=O)N(C)Cc2c(C)noc2C)CC1 (stereo not drawn) | 31.6 |
| Cc1cc(CNC(=O)Nc2ccc(C(=O)NC3CC3)cc2)no1 | -14.3 |
| Cc1noc(C)c1C(=O)Nc1ccc2ncn(CC(C)C)c(=O)c2c1 | 50.5 |
| COCCNC(=O)c1ccc2c(=O)n3c(nc2c1)CCCCCC3 | 7.92 |
| Fc1ccc(-c2nc(CNC3CCc4ncnn4C3)cs2)cc1 (stereo not drawn) | 0.825 |

| SMILES | cytotoxicity at 70.5 h [%] |
| --- | --- |
| CSC(C)(C)CNC(=O)NC1CCN(CC2CC2)C1 (stereo not drawn) | 15.5 |
| CC(=O)N1CCN([C@@H]2CC[C@@H](NC(=O)c3cncc(C)c3)[C@H]2O)CC1 | 24 |
| Cc1ccc(N2CCN(C)c3ncccc3C2)nn1 | -2.98 |
| Cc1ccccc1C1CCN(CCn2cc(-c3nccs3)nn2)C1 (stereo not drawn) | 49.5 |
| Cc1ccsc1-c1nnc(C2CCN(Cc3ccc(F)cc3)CC2)o1 | -21.5 |
| O=C(Nc1cnn(COc2ccc(F)cc2Cl)c1)C1CC1 | 9.89 |
| O=C(NCC1CC1)[C@H]1C[C@@H]2CCN(Cc3ccc4c(c3)OCO4)C[C@@H]2O1 | -11.6 |
| CN(Cc1ccncc1)C(=O)c1ccc(F)c(NS(C)(=O)=O)c1 | -4.24 |
| COCCOCC(=O)N1CCCC(c2ncc[nH]2)C1 (stereo not drawn) | -16.6 |
| CC1c2ncc(COCC3CC3)n2CCN1C(=O)c1ccnn1C (stereo not drawn) | -10.2 |
| Cn1cc(N2CC3(CCN(Cc4cccnc4)CC3)OCC2=O)cn1 | -3.89 |
| O=C(NCc1nc2ccccc2[nH]1)c1cnn2c1OCCC2 | -1.96 |
| CCc1nc(Cn2c(=O)n(CC)c3ccccc32)no1 | -7.55 |
| CCc1nccn1CCC(=O)N1CC[C@@H](c2sccc2C)[C@H](O)C1 | -12.3 |
| CC(=O)N1[C@H](Cn2cncn2)C[C@@H]2CN(Cc3ccncc3)CC[C@@H]21 | -3.75 |
| Cc1nc(NC(=O)c2nn(-c3ccc(F)cc3C)cc2O)n[nH]1 | -14.6 |
| CC(C)NC(=O)c1nnc2ccc(N3CCOCC3)cc2n1 | -5.91 |
| CCc1cccnc1NCc1cnc(N2CCOCC2)nc1 | 20.6 |
| COCCN1CCC(c2cncc(-c3cccc(Cl)c3)n2)CC1 | -5.78 |
| COc1ccc(OCc2cc(C(=O)N3CCN[C@H](C)C3)n[nH]2)c(Cl)c1 | -9.79 |
| COCCNc1ccc(CC2CCCN(C3CCOCC3)C2)nn1 (stereo not drawn) | -4.94 |
| Cc1nn(C)cc1CN1CCCC(n2c(=O)oc3ccccc32)C1 (stereo not drawn) | 0.702 |
| Cc1noc(CN(C)Cc2cnc(N3CCOCC3)nc2)n1 | -6.57 |

| SMILES | cytotoxicity at 70.5 h [%] |
| --- | --- |
| NCc1cn(-c2ccccc2C(=O)NCc2cccc(Cl)c2)cn1 | -13.7 |
| O=C(O)CSC1CCc2ccccc2NC1=O (stereo not drawn) | -14.7 |
| OCC1(CCOc2ccccc2)CCCN(c2ccc(Cl)cn2)C1 (stereo not drawn) | -2.17 |
| Cc1ccc(N2CCc3sc(C(=O)NCCN4CCCC4)cc32)nn1 | -0.377 |
| COC(=O)N1CCC(Nc2ccc(Cl)c(C#N)n2)CC1 | -0.879 |
| CC(C)(C)SCC(=O)Nc1cc(-n2nnnc2C2CC2)ccc1F | 10.5 |
| COc1ccc(CNC(=O)Nc2ccc(CN3CCOC3=O)cc2)cc1 | -0.36 |
| Cc1ncc(C(=O)NCCOc2ccccc2F)c(C)n1 | 7.2 |
| CN1CCCN(C(=O)c2cnc(Cc3c(Cl)cccc3Cl)nc2O)CC1 | -3.04 |
| NC1CCN(S(=O)(=O)c2ccc(C(=O)N3CCSCC3)cc2)C1 (stereo not drawn) | -9.37 |
| CSCCc1ccc(NC(=O)NC(C)Cn2cncn2)cc1 (stereo not drawn) | -2.38 |
| CN(CCOc1cccc(CNC(=O)C2CC2)c1)C1CCOCC1 | -8.5 |
| O=S1(=O)CCC(c2nnc(-c3cnc4onc(C5CC5)c4c3)o2)C1 (stereo not drawn) | -2.78 |
| Cc1cc(=O)c(C(=O)N2CCN(C)c3ccccc3C2)c[nH]1 | -9.5 |
| Nc1nc(N)c2c(n1)OC1(CCN(Cc3nccs3)C1)C2 (stereo not drawn) | -6.73 |
| CC(=O)Nc1ccn(Cc2ccccc2)n1 | -12.2 |
| O=C(O)c1ccc(F)c(S(=O)(=O)Nc2c(F)cccc2-n2cccn2)c1 | -5.11 |
| CCN(Cc1noc(C2CC2)n1)Cc1ccc(C#N)cc1F | 1.6 |
| COc1ccc(CC(=O)N2CC(=O)NCC(C)(C)C2)cc1 | 14.8 |
| FC(F)(F)CN1CCC(CCNc2ncccn2)CC1 | 0.447 |
| O=C(NC1CC1)C1(Cc2cc(-c3ccc(F)cc3F)no2)CCOCC1 | 0.221 |
| CC(C)[C@H]1CN(Cc2ccccc2C#N)C[C@@H]1NC(=O)C1CCOCC1 | -13.1 |
| CCN1CCn2cc(CNC(=O)c3cnn(C)c3)nc2C1 | -110 |

| SMILES | cytotoxicity at 70.5 h [%] |
| --- | --- |
| O=C(O)C1(Oc2cccc(F)c2)CCN(C2CCOCC2)CC1 | -6.65 |
| CCC(C)(COc1ncccc1Cl)NCC(=O)Nc1ccc(Br)cn1 (stereo not drawn) | 38.6 |
| O=C(CN1CCCC1)Nc1c2c(cc3c1CCC3)CCC2 | -4.72 |
| CSCCC(=O)N1CCCCC1CCn1cccn1 (stereo not drawn) | -6.75 |
| CCCN1CCN(C(=O)c2cc[nH]n2)[C@H]2CS(=O)(=O)C[C@H]21 | -11.3 |
| O=C1CC2(CCCCN2C(=O)Cc2ccccc2)CN1c1cccnc1 (stereo not drawn) | -1.11 |
| Cc1cc(N2CCOC(C(F)(F)F)C2)nc(-c2ccccc2)n1 (stereo not drawn) | -24.8 |
| Cc1cccc(-c2cc(C(=O)O)sn2)c1 | -14.1 |
| O=C(c1nc(=O)[nH]c2ccccc12)N1CCCC2(CCNC2)C1 (stereo not drawn) | 8.43 |
| O=C(c1cc(Cl)c2c(c1)OCO2)N1CCN(c2ncccn2)CC1 | 30.1 |
| Cc1cc(F)ccc1S(=O)(=O)N1C[C@@H](C)[C@@](C)(O)C1 | -3.25 |
| CN(CC(=O)N(C)C1CCCCC1)Cc1nc2ccccc2c(=O)[nH]1 | -6.53 |
| Clc1ccc(C(CNCc2cccnc2)n2cccn2)cc1 (stereo not drawn) | 24.3 |
| Cc1noc([C@H]2CC[C@@H]3[C@@H](CCN3S(=O)(=O)C3CC3)O2)n1 | -3.57 |
| O=C(NCc1cc[nH]n1)NC1CCCN(c2ncccn2)C1 (stereo not drawn) | -6.39 |
| CN(C)C[C@H]1OC[C@@H]2CN(C(=O)NCc3cccc(F)c3)CC[C@@H]21 | -5.06 |
| NC(=O)Nc1cccc(CNC(=O)CCCc2ccccc2)c1 | 18 |
| O=C(c1ccc2nccn2c1)N(CCO)Cc1ccccc1F | 3.35 |
| Cc1csc(CNC(=O)NCC(C)Cn2nc(C)cc2C)n1 (stereo not drawn) | -5.06 |
| Cc1nn(C)cc1Cn1c(=O)c(C)nc2ccccc21 | -6.18 |
| CCc1csc(C2CCCN(C(=O)c3ncccn3)C2)n1 (stereo not drawn) | -0.847 |
| Cc1nc(C)n(CC2CN(Cc3nc4ccccc4s3)CCO2)n1 (stereo not drawn) | 18.9 |
| Cc1ccc(C(=O)N2CCC(Oc3ccccc3)CC2)c(=O)[nH]1 | 10.3 |

| SMILES | cytotoxicity at 70.5 h [%] |
| --- | --- |
| O=C(Cn1c(=O)nc2n1C(=O)N(c1ccccc1)C2)NC1CCCCC1 | -7.65 |
| NC(=O)c1noc(Cn2ccc3ccccc3c2=O)n1 | -4.6 |
| CC(C(=O)NCCCN1CCN(c2ccccc2)CC1)n1cncn1 (stereo not drawn) | -15.9 |
| CN(C)S(=O)(=O)N1CC[C@]2(O)CCN(Cc3cccc(C#N)c3)C[C@@H]2C1 | 9.63 |
| CN(C)S(=O)(=O)c1ccc(CN2CCC(c3ccccc3)C2)o1 (stereo not drawn) | 4.6 |
| Cc1csc(Nc2cc(C3CN(C(C)C)C3)nc(C)n2)n1 | -3.73 |
| CC(O)CN1CCC(CNCc2ccccc2F)CC1 (stereo not drawn) | -1.41 |
| Cc1cc(-c2cnc(N3CCSCC3)nc2-c2ccc(C)s2)on1 | -7.01 |
| O=C(O)c1csc(S(=O)(=O)Nc2cccc(OC(F)F)c2)c1 | -12.7 |
| O=C(O)c1nnn(Cc2ccc(F)cc2)c1-c1cccnc1 | -10.1 |
| Cc1ccsc1C(=O)N1CCC2(CC(N(C)c3ccncn3)C2)C1 (stereo not drawn) | -4.77 |
| CC(=O)N1CCC2(CC1)CCN(S(=O)(=O)c1ccccc1)C2 | 29.2 |
| CC(C)CN(CC(=O)O)C(=O)c1ccc(F)cc1 | 4.28 |
| Cc1nnc(C(C)NCC2(c3ccc(Cl)cc3)CCOCC2)o1 (stereo not drawn) | -18.1 |
| CCc1nc(CNc2cc(C)nc(-c3cccnc3)n2)cs1 | 24.1 |
| Fc1ccccc1-c1cccc(C2CCCN(C3CCOCC3)C2)n1 (stereo not drawn) | -7.34 |
| O=c1[nH]c2nc(N3CCCCCC3)ncc2c(=O)n1-c1cccc(F)c1 | -0.0138 |
| COc1ccccc1C(=O)N1Cc2cc(C)ccc2OCC1CN(C)C (stereo not drawn) | -8.39 |
| CN1CCOC(C)(C(=O)Nc2nccs2)C1 (stereo not drawn) | 40.2 |
| CC(C)c1nncn1CCNC(=O)c1ccc(Cl)cc1O | 0.918 |
| Cc1cnc2n1CCN(C)C21CCN(C(=O)CC(C)C)CC1 | 3.32 |
